Measurements from paper PMC4499129, “DNA3′pp5′G de-capping activity of aprataxin: effect of cap nucleoside analogs and structural basis for guanosine recognition” (Nucleic Acids Research, 2015).

How the values were obtained:
Aprataxin-(33-232) = target: T1, Aprataxin-(33-232) (Schizosaccharomyces pombe, UniProt O74859); assay: X-ray crystal structure, […] Å; assay type: binding; conditions: co-crystallised with 5 mM GMP, pH 8.0, active site of protomer B
T1 construct: gene hnt3; catalytic domain aa 33-232 (HIT domain + zinc finger), His10Smt3 tag cut by Ulp1, tag-free; E. coli BL21(DE3); two protomers per asymmetric unit
T1 sequence (O74859 33-232): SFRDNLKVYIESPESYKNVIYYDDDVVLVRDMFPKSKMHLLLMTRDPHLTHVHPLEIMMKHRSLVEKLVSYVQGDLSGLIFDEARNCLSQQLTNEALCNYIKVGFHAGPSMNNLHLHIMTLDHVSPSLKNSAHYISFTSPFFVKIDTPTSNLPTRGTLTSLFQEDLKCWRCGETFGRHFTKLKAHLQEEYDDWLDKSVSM

[1] = target: T2, aprataxin-(33-232), catalytic domain (HIT + Zn finger) (Schizosaccharomyces pombe, UniProt O74859 33-232); assay: X-ray crystallography (2.25 A, P321); Zn2+, guanosine in active site; complementary 3'-PO4 strand … was in the mix but not in the crystal; Crystallization: aprataxin-(33-232) with 5 mM guanosine and 1.2 mM of each 10-mer, mixed with 15% PEG-3350, 0.15 M magnesium acetate; pH and temperature not given in the material; conditions: protein: recombinant; chain copies: 2; two copies of the same strand; blunt 10-nt duplex, 8/10 mismatches, only terminal G:C pairs canonical
T2 sequence: T1 sequence (O74859 33-232)

Q: Nc1nc2c(ncn2[C@@H]2O[C@H](COP(=O)(O)O)[C@@H](O)[C@H]2O)c(=O)[nH]1 [GMP] was tested. Which “X-ray crystal structure, 1.5 Å” value (Aprataxin-(33-232); anti conformation) did it give?
A: The value was “The refined model included guanosine in the active site of the A protomer and GMP”.

Q: Nc1nc2c(ncn2[C@@H]2O[C@H](CO)[C@@H](O)[C@H]2O)c(=O)[nH]1 [guanosine] was tested. Which “X-ray crystal structure, 1.5 Å” value (Aprataxin-(33-232); anti conformation crystal, grown with 5 mM GMP (no guanosine added), guanosine modelled in active site of protomer A, anti conformatio) did it give?
A: The value was “Difference density allowed placement of guanosine in the active site of the A protomer”.

B1: 10-mer self-paired mismatched duplex HO-GAATCATAAC-OH (dsDNA)
DNA 1: GAATCATAAC
DNA 2: GAATCATAAC
modifications: 5'-OH and 3'-OH ends
Q: Does B1 bind [1]?
A: Result: binds
